# Legend:
# [1] = Particle size by laser light diffraction (Sympatec Dry Dispersion Size Analyzer); assay type: physicochemical; parameters: d[v,10] / d[v,50] / d[v,90]: unit not given here; conditions: for Span: Span=[d(v,0.9)-d(v,0.1)]/d(v,0.5); for d[v,10] / d[v,50] / d[v,90]: average of triplicate
# Method: The particle size was determined by Laser light diffraction using the Sympatec Dry Dispersion Size Analyzer (Clausthal-Zellerfeld, Germany).
# The powder was dispersed for two measurement conditions at an air pressure of 1 and 4 bar.
# The average d[v,10], d[v,50], d[v,90] values were calculated from triplicate measurements. The span was calculated using the following equation: Span=[d(v,0.9)−d(v,0.1)]/d(v,0.5)
# [2] = Physical stability (particle size growth) upon storage; assay type: physicochemical; conditions: at least three months, ambient conditions (22±2° C. and 60% relative humidity)
# Excerpt: The physical stability shall be measured by using a Sympatec Dry Dispersion Size Analyzer, while the chemical stability shall be determined according to known method such as HPLC.
smiles,measurement,setting,value
"C[N+]1(C)CCC(OC(=O)C(O)(c2ccccc2)C2CCCC2)C1.[Br-] (racemic) [Example 1, (3S,2′R), (3R,2′S)-3-[(Cyclopentylhydroxyphenylacetyl)oxy]-1,1-dimethylpyrrolidinium bromide racemic mixture]",Span,[1]; dispersion pressure 1.0 bar,1.50
same,"d[v,10]",[1]; dispersion pressure 1.0 bar,0.81
same,"d[v,50]",[1]; dispersion pressure 1.0 bar,4.17
same,"d[v,90]",[1]; dispersion pressure 1.0 bar,7.05
same,Span,[1]; dispersion pressure 4.0 bar,2.19
same,"d[v,10]",[1]; dispersion pressure 4.0 bar,0.43
same,"d[v,50]",[1]; dispersion pressure 4.0 bar,2.29
same,"d[v,90]",[1]; dispersion pressure 4.0 bar,5.45
same,growth of the particle size upon storage,[2],No significant growth of the particle size
